From ChEMBL document CHEMBL5518218, “Discovery of Novel PD-L1 Small-Molecular Inhibitors with Potent In Vivo Anti-tumor Immune Activity” (J Med Chem, 2024)
Converted amounts (≈) assume the structure as drawn. One block for each compound: values may come before it. The source made the active and inactive calls. The rule behind the calls is not given here.

How the values were obtained:
CHO-K1 [1] = experiment: Cytotoxicity against […] cells expressing PD-L1 assessed as reduction in cell viability at 50 uM incubated for 6 hrs by CCK-8 assay; assay type: toxicity, cell-based, Cricetulus griseus; details: chinese hamster, cho-k1, 6 h
[2] = molecular target: T1, Programmed cell death protein 1/Programmed cell death 1 ligand 1 (Homo sapiens, UniProt Q15116+Q9NZQ7); experiment: (§1) Inhibition of interaction of human PD-1 expressed in Jurkat T cells co-transfected with NFAT/human PD-L1 expressed in CHO-K1 cells co-expressing aAPC preincubated with CHO-K1 cells followed by Jurkat cell addition and measured after 6 hrs by automated microplate spectrophotometer analysis; assay type: cell-based; details: cho-k1
Jurkat = experiment: Cytotoxicity against human Jurkat cells expressing PD-1 assessed as reduction in cell viability at 50 uM incubated for 6 hrs by CCK-8 assay; assay type: functional, cell-based
[3] = molecular target: T2, Programmed cell death protein 1/Programmed cell death 1 ligand 1 (Homo sapiens, UniProt Q9NZQ7); experiment: Inhibition of PD-1/PD-L1 interaction (unknown origin) incubated for 15 min by HTRF assay; assay type: protein-complex assay
[4] = molecular target: T2, Programmed cell death protein 1/Programmed cell death 1 ligand 1; experiment: as §1; assay type: cell-based
[5] = molecular target: Programmed cell death 1 ligand 1 (Homo sapiens, UniProt Q9NZQ7); experiment: Binding affinity to his-tagged human PD-L1 assessed as dissociation constant by SPR analysis
[6] = molecular target: Programmed cell death protein 1 (Homo sapiens) (UniProt Q15116); experiment: Inhibition of human PD-1 expressed in Jurkat T cells co-transfected with NFAT by automated microplate spectrophotometer analysis; assay type: cell-based
[7] = molecular target: T1, Programmed cell death protein 1/Programmed cell death 1 ligand 1; experiment: as §1, with “aAPC assessed as maximum relative light unit” for “aAPC”; assay type: cell-based
MC-38 [8] = experiment: Antitumor activity against mouse MC38 cells implanted in C57BL/6J mouse assessed as tumor growth inhibition at 5 mg/kg, po measured for 20 days; assay type: functional; details: MC-38, 480 h, time 20 day, read-out: TGI
CT26 = experiment: Cytotoxicity against mouse CT26 cells assessed as effect on cell viability at 0.07 to 150 uM incubated for 48 hrs by CCK-8 assay; assay type: functional, cell-based; details: dose 0.07-150 µM
PBMC [9] = experiment: Induction of antitumor immunity in human PBMC cells assessed as increase in IFN-gamma expression at 0.1 to 10 uM incubated for 12 hrs by ELISA analysis; assay type: functional, cell-based; details: dose 0.1-10 µM
CHO-K1 [10] = experiment: Induction of PD-L1 internalization in CHO-K1 cells assessed as increase in PD-L1 concentration in cytoplasm at 10 uM incubated for 12 hrs by DIL-staining based confocal microscopic analysis analysis; assay type: functional, cell-based; details: Cricetulus griseus
PBMC [11] = experiment: Induction of antitumor immunity in human PBMC cells expressing PD-L1 assessed as increase in IL-2 expression incubated for 12 hrs by ELISA analysis; assay type: functional, cell-based; details: dose 0.1-10 µM
MC-38 [12] = experiment: Cytotoxicity against mouse MC38 cells assessed as effect on cell viability at 0.07 to 150 uM incubated for 48 hrs by CCK-8 assay; assay type: functional, cell-based; details: dose 0.07-150 µM
CHO-K1 [13] = experiment: Induction of PD-L1 internalization in CHO-K1 cells assessed as increase in PD-L1 concentration in nucleus at 10 uM incubated for 12 hrs by DIL-staining based confocal microscopic analysis analysis; assay type: functional, cell-based; details: Cricetulus griseus
[14] = Tmax in Sprague-Dawley rat at 50 mg/kg, po measured upto 24 hrs by LC-MS/MS analysis; assay type: ADME, organism-based; details: in vivo
PBMC [15] = experiment: Induction of antitumor immunity in human PBMC cells expressing PD-L1 assessed as increase in IFN-gamma expression incubated for 12 hrs by ELISA analysis; assay type: functional, cell-based; details: dose 0.1-10 µM
[16] = Stability in human liver microsomes assessed as half life; assay type: ADME, Microsome
[17] = Lipophilicity, log D of the compound at pH 7.4; assay type: physicochemical; details: buffer
CHO-K1 [18] = experiment: Reduction in cell surface PD-L1 expression in CHO-K1 cells expressing aAPC at 10 uM incubated for 24 hrs by immunofluorescence based microscopic analysis; assay type: functional; details: Cricetulus griseus
[19] = Cmax in Sprague-Dawley rat at 50 mg/kg, po measured upto 24 hrs by LC-MS/MS analysis; assay type: ADME, organism-based; details: in vivo
[20] = Water solubility of the compound; assay type: physicochemical
[21] = molecular target: Voltage-gated inwardly rectifying potassium channel KCNH2 (Homo sapiens, UniProt Q12809); experiment: Inhibition of hERG upto 30 uM; assay type: toxicity
CHO-K1 [22] = experiment: Reduction in cell surface PD-L1 expression in CHO-K1 cells expressing aAPC incubated for 24 hrs by flow cytometry analysis; assay type: functional, cell-based; details: Cricetulus griseus, dose 0.1-10 µM
[23] = Half life in Sprague-Dawley rat at 50 mg/kg, po measured upto 24 hrs by LC-MS/MS analysis; assay type: ADME, organism-based; details: in vivo
[24] = Mutagenicity in Salmonella typhimurium TA100 by mini-Ames test; assay type: toxicity; details: salmonella enterica subsp. enterica serovar typhimurium
[25] = Mutagenicity in Salmonella typhimurium TA98 by mini-Ames test; assay type: toxicity; details: salmonella enterica subsp. enterica serovar typhimurium
[26] = molecular target: Programmed cell death 1 ligand 1 (Mus musculus, UniProt Q9EP73); experiment: Binding affinity to his-tagged mouse PD-L1 assessed as dissociation constant by SPR analysis
[27] = AUC (0 to t) in Sprague-Dawley rat at 50 mg/kg, po measured upto 24 hrs by LC-MS/MS analysis; assay type: ADME, organism-based; details: in vivo

Sequence of Programmed cell death 1 ligand 1 (Homo sapiens, UniProt Q9NZQ7) (Q9NZQ7 whole entry): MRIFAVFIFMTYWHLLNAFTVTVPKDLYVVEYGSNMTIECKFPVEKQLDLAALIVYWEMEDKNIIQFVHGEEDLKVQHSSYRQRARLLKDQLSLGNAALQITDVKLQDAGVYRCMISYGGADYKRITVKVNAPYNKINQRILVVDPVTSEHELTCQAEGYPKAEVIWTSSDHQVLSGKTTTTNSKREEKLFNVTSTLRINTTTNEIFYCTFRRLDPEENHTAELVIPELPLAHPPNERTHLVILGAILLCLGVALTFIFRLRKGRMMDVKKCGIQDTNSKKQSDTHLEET
Sequence of Programmed cell death protein 1 (Homo sapiens) (Q15116 whole entry): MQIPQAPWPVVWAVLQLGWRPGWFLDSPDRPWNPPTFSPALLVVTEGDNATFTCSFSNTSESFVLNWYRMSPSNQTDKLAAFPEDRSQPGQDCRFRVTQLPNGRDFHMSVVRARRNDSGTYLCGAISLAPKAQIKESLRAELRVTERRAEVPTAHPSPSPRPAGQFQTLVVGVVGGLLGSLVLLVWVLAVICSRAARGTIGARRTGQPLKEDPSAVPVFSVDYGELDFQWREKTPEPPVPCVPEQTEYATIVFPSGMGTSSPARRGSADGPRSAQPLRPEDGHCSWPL
T2 sequence (Q15116 whole entry): as above
T2 sequence (Q9NZQ7 whole entry): as the sequence (Q9NZQ7 whole entry) above
Sequence of Programmed cell death 1 ligand 1 (Mus musculus, UniProt Q9EP73) (Q9EP73 whole entry): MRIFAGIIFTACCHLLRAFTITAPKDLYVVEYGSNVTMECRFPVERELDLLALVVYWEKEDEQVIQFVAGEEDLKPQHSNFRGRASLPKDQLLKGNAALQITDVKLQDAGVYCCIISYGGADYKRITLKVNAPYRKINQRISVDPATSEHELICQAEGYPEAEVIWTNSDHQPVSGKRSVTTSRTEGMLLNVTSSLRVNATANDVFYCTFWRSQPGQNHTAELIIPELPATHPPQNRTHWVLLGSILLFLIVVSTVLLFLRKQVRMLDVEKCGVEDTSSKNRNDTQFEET
Sequence of Voltage-gated inwardly rectifying potassium channel KCNH2 (Q12809 whole entry): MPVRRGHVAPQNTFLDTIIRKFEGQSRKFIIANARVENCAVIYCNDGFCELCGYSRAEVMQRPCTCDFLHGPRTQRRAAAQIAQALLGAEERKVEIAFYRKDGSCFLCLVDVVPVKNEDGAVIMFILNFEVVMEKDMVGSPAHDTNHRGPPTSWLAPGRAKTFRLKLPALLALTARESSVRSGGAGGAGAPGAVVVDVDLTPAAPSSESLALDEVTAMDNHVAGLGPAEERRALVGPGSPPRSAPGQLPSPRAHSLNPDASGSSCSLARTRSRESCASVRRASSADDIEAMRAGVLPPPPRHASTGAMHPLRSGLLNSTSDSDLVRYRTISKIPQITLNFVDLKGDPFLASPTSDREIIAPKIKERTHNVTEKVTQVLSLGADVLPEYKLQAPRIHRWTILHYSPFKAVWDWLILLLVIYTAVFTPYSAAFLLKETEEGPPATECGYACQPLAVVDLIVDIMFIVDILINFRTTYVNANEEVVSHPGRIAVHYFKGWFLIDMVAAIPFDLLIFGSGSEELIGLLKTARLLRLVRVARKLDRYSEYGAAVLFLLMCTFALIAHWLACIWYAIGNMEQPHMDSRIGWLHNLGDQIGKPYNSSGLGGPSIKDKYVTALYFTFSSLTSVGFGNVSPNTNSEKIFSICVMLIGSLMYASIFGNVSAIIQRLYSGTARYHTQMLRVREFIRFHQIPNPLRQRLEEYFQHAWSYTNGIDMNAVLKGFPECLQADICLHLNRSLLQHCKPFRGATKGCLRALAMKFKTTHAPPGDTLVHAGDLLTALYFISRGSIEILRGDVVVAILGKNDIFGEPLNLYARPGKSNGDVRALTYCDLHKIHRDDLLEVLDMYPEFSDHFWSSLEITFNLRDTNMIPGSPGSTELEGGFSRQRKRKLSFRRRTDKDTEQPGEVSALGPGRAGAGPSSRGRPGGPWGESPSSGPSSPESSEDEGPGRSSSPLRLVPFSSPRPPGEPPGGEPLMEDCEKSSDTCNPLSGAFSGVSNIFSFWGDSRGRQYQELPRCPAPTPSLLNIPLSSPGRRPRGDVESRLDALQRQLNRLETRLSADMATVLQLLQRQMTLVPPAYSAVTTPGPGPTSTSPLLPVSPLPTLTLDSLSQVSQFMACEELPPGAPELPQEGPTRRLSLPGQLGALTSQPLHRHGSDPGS
T1 sequence (Q15116 whole entry): as the sequence (Q15116 whole entry) above
T1 sequence (Q9NZQ7 whole entry): as the sequence (Q9NZQ7 whole entry) above

SMILES: CCN(CC)C(=O)CCOc1cccc(-c2cccc(COc3cc(OCc4ccc5nonc5c4)c(CN[C@H](CO)C(=O)O)cc3Cl)c2Cl)c1
Activity (CHO-K1 [1]): Non-Toxic
EC50 [2]: Not Active
Activity (Jurkat): Active
IC50 [3]: 187 nM

SMILES: O=C(O)[C@@H](CO)NCc1cc(Cl)c(OCc2cccc(-c3cccc(OCCCCN4CCC(O)CC4)c3)c2F)cc1OCc1ccc2nonc2c1
IC50 [3]: 3.1 nM

SMILES: O=C(O)[C@@H](CO)NCc1cc(Cl)c(OCc2cccc(-c3cccc(OCCCN4CCOCC4)c3)c2F)cc1OCc1ccc2nonc2c1
IC50 [3]: 12.5 nM

SMILES: O=C(O)[C@@H](CO)NCc1cc(Cl)c(OCc2cccc(-c3cccc(OCCN(CCO)CCO)c3)c2Cl)cc1OCc1ccc2nonc2c1
IC50 [3]: 109 nM

SMILES: O=C(O)[C@@H](CO)NCc1cc(Cl)c(OCc2cccc(-c3cccc(OCCCN(CCO)CCO)c3)c2Cl)cc1OCc1ccc2nonc2c1
Activity (CHO-K1 [1]): Non-Toxic
EC50 [4]: 353 nM
Kd [5]: 34.1 nM
inhibition [6]: inactive
Activity (Jurkat): Active
Activity [7]: 2 RLU
IC50 [3]: 5.4 nM

SMILES: O=C(O)[C@@H](CO)NCc1cc(Cl)c(OCc2cccc(-c3cccc(OCCCCN(CCO)CCO)c3)c2Cl)cc1OCc1ccc2nonc2c1
IC50 [3]: 8.2 nM

SMILES: O=C(O)C1CCN(CCCCOc2cccc(-c3cccc(COc4cc(OCc5ccc6nonc6c5)c(CN[C@H](CO)C(=O)O)cc4Cl)c3Cl)c2)CC1
IC50 [3]: 8.8 nM

SMILES: O=C(O)[C@@H](CO)NCc1cc(Cl)c(OCc2cccc(-c3cccc(OCCCCN4CCC(CO)CC4)c3)c2Cl)cc1OCc1ccc2nonc2c1
IC50 [3]: 3.5 nM

SMILES: O=C(O)[C@@H](CO)NCc1cc(Cl)c(OCc2cccc(-c3cccc(OCCCNCCN4CCCCC4)c3)c2Cl)cc1OCc1ccc2nonc2c1
IC50 [3]: 23.8 nM

SMILES: O=C(O)[C@@H](CO)NCc1cc(Cl)c(OCc2cccc(-c3cccc(OCCCCN4CCC(O)CC4)c3)c2Cl)cc1OCc1ccc2nonc2c1
IC50 [3]: 3.3 nM

SMILES: COP(=O)(NCCCOc1cccc(-c2cccc(COc3cc(OCc4ccc5nonc5c4)c(CN[C@H](CO)C(=O)O)cc3Cl)c2Cl)c1)OC
IC50 [3]: 746 nM

SMILES: O=C(O)[C@@H](CO)NCc1cc(Cl)c(OCc2cccc(-c3cccc(OCCCCN4CCOCC4)c3)c2F)cc1OCc1ccc2nonc2c1
IC50 [3]: 21.2 nM

SMILES: O=C(O)[C@@H](CO)NCc1cc(Cl)c(OCc2cccc(-c3cccc(OCCCN4CCOCC4)c3)c2Cl)cc1OCc1ccc2nonc2c1
IC50 [3]: 34.7 nM

SMILES: O=C(O)[C@@H](CO)NCc1cc(Cl)c(OCc2cccc(-c3ccccc3)c2Br)cc1OCc1ccc2nonc2c1 [listing 1 of 3 here]
inhibition in vivo at 5 mg/kg (MC-38 [8]): 52.5%

SMILES: CCN(CC)CCCOc1cccc(-c2cccc(COc3cc(OCc4ccc5nonc5c4)c(CN[C@H](CO)C(=O)O)cc3Cl)c2Cl)c1
IC50 [3]: 78.3 nM

SMILES: O=C(O)[C@@H](CO)NCc1cc(Cl)c(OCc2cccc(-c3cccc(OCCCN4CCC(O)CC4)c3)c2Cl)cc1OCc1ccc2nonc2c1
Activity (CHO-K1 [1]): Non-Toxic
EC50 [4]: 158 nM
Kd [5]: 22.9 nM
inhibition [6]: inactive
Activity (Jurkat): Active
Activity [7]: 2.2 RLU
IC50 [3]: 2.02 nM

SMILES: O=C(O)[C@@H](CO)NCc1cc(Cl)c(OCc2cccc(-c3ccccc3)c2Br)cc1OCc1ccc2nonc2c1 [listing 2 of 3 here]
inhibition [6]: inactive
Activity (Jurkat): Active
Activity [7]: 1.8 RLU

SMILES: O=C(O)[C@@H](CO)NCc1cc(Cl)c(OCc2cccc(-c3cccc(OCCN4CCC(O)CC4)c3)c2Cl)cc1OCc1ccc2nonc2c1
IC50 [3]: 40.5 nM

SMILES: O=C(O)[C@@H](CO)NCc1cc(Cl)c(OCc2cccc(-c3ccccc3)c2Br)cc1OCc1ccc2nonc2c1 [listing 3 of 3 here]
Activity (CHO-K1 [1]): Non-Toxic

SMILES: O=C(O)[C@@H](CO)NCc1cc(Cl)c(OCc2cccc(-c3cccc(OCCCCN4CCNCC4)c3)c2Cl)cc1OCc1ccc2nonc2c1
IC50 [3]: 42.1 nM

SMILES: O=C(O)[C@@H](CO)NCc1cc(Cl)c(OCc2cccc(-c3cccc(OCCCNCCO)c3)c2Cl)cc1OCc1ccc2nonc2c1
IC50 [3]: 6.1 nM

SMILES: O=C(O)[C@@H](CO)NCc1cc(Cl)c(OCc2cccc(-c3cccc(OCCCNS(=O)(=O)N4CCOCC4)c3)c2Cl)cc1OCc1ccc2nonc2c1
IC50 [3]: 87.6 nM

SMILES: O=C(O)[C@@H](CO)NCc1cc(Cl)c(OCc2cccc(-c3cccc(OCCN4CCOCC4)c3)c2Cl)cc1OCc1ccc2nonc2c1
IC50 [3]: 121 nM

Tmax [14]: 6 min
half-life [16]: 1.95 h
logD [17]: 0.67
Cmax [19]: 45.6 ng/mL
solubility [20]: 23.6 µM (≈ 17.4 µg/mL)
half-life [23]: 5.3 h
AUC(0-t) at 24 h [27]: 82.1 ng·h/mL
SMILES: O=C(O)[C@@H](CO)NCc1cc(Cl)c(OCc2cccc(-c3cccc(OCCCN4CCC(O)CC4)c3)c2F)cc1OCc1ccc2nonc2c1
Activity (CT26): inactive
Activity (PBMC [9]): inactive
Activity (CHO-K1 [10]): Active
Activity (PBMC [11]): Dose-Dependent Effect
Activity (MC-38 [12]): inactive
Activity (CHO-K1 [13]): Active
Activity (CHO-K1 [1]): Non-Toxic
EC50 [4]: 153 nM
Kd [5]: 2 nM
inhibition [6]: inactive
Activity (PBMC [15]): Dose-Dependent Effect
Activity (CHO-K1 [18]): Active
Activity (Jurkat): Active
Activity [7]: 2.3 RLU
inhibition (INH) [21]: Not Active
Activity (CHO-K1 [22]): Dose-Dependent Effect
IC50 [3]: 13 nM
Activity [24]: Non-Toxic
Activity [25]: Non-Toxic
Kd [26]: 31.8 nM
